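Cultured in 96-well plates, cells were exposed to test compound for 48 hours across five concentrations. Definition used: TGI = concentration required for complete inhibition of growth.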
Legend:
Test in all cases: NCI-60 cell line screen, 48 h
786-0 renal = system: 786-0 renal
A498 renal = system: A498 renal
A549 NSCLC = system: A549 NSCLC
ACHN renal = system: ACHN renal
BT-549 breast = system: BT-549 breast
CAKI-1 renal = system: CAKI-1 renal
CCRF-CEM leukemia = system: CCRF-CEM leukemia
COLO 205 colon = system: COLO 205 colon
DU-145 prostate = system: DU-145 prostate
EKVX NSCLC = system: EKVX NSCLC
HCC-2998 colon = system: HCC-2998 colon
HCT-116 colon = system: HCT-116 colon
HCT-15 colon = system: HCT-15 colon
HL-60(TB) leukemia = system: HL-60(TB) leukemia
HOP-62 NSCLC = system: HOP-62 NSCLC
HOP-92 NSCLC = system: HOP-92 NSCLC
HS 578T breast = system: HS 578T breast
HT29 colon = system: HT29 colon
IGROV1 ovarian = system: IGROV1 ovarian
K-562 leukemia = system: K-562 leukemia
KM12 colon = system: KM12 colon
LOX IMVI melanoma = system: LOX IMVI melanoma
M14 melanoma = system: M14 melanoma
MALME-3M melanoma = system: MALME-3M melanoma
MCF7 breast = system: MCF7 breast
MDA-MB-231 breast = system: MDA-MB-231 breast
MDA-MB-435 = system: MDA-MB-435
MDA-N = system: MDA-N
MOLT-4 leukemia = system: MOLT-4 leukemia
NCI-H226 lung = system: NCI-H226 lung
NCI-H23 lung = system: NCI-H23 lung
NCI-H460 lung = system: NCI-H460 lung
NCI-H522 lung = system: NCI-H522 lung
NCI/ADR-RES ovarian = system: NCI/ADR-RES ovarian
OVCAR-3 ovarian = system: OVCAR-3 ovarian
OVCAR-4 ovarian = system: OVCAR-4 ovarian
OVCAR-5 ovarian = system: OVCAR-5 ovarian
OVCAR-8 ovarian = system: OVCAR-8 ovarian
PC-3 prostate = system: PC-3 prostate
RPMI-8226 leukemia = system: RPMI-8226 leukemia
RXF 393 renal = system: RXF 393 renal
SF-268 CNS = system: SF-268 CNS
SF-295 CNS = system: SF-295 CNS
SF-539 CNS = system: SF-539 CNS
SK-MEL-2 melanoma = system: SK-MEL-2 melanoma
SK-MEL-28 melanoma = system: SK-MEL-28 melanoma
SK-MEL-5 melanoma = system: SK-MEL-5 melanoma
SK-OV-3 ovarian = system: SK-OV-3 ovarian
SN12C renal = system: SN12C renal
SNB-19 CNS = system: SNB-19 CNS
SNB-75 CNS = system: SNB-75 CNS
SR leukemia = system: SR leukemia
SW-620 colon = system: SW-620 colon
T-47D breast = system: T-47D breast
TK-10 renal = system: TK-10 renal
U251 CNS = system: U251 CNS
UACC-257 melanoma = system: UACC-257 melanoma
UACC-62 melanoma = system: UACC-62 melanoma
UO-31 renal = system: UO-31 renal

SMILES: CCN(CC)CCn1ncc2c3c(=O)c4cccnc4n(CCN(CC)CC)c3ccc21
- TGI (786-0 renal): > 10 µM
- TGI (A498 renal): > 10 µM
- TGI (A549 NSCLC): > 10 µM
- TGI (ACHN renal): > 10 µM
- TGI (BT-549 breast): > 10 µM
- TGI (CAKI-1 renal): > 10 µM
- TGI (CCRF-CEM leukemia): > 10 µM
- TGI (COLO 205 colon): 6.67 µM
- TGI (DU-145 prostate): > 10 µM
- TGI (EKVX NSCLC): > 10 µM
- TGI (HCC-2998 colon): > 10 µM
- TGI (HCT-116 colon): > 10 µM
- TGI (HCT-15 colon): > 10 µM
- TGI (HL-60(TB) leukemia): > 10 µM
- TGI (HOP-62 NSCLC): > 10 µM
- TGI (HOP-92 NSCLC): > 10 µM
- TGI (HS 578T breast): > 10 µM
- TGI (HT29 colon): > 10 µM
- TGI (IGROV1 ovarian): > 10 µM
- TGI (K-562 leukemia): > 10 µM
- TGI (KM12 colon): > 10 µM
- TGI (LOX IMVI melanoma): > 10 µM
- TGI (M14 melanoma): > 10 µM
- TGI (MALME-3M melanoma): > 10 µM
- TGI (MCF7 breast): > 10 µM
- TGI (MDA-MB-231 breast): > 10 µM
- TGI (MDA-MB-435): > 10 µM
- TGI (MDA-N): > 10 µM
- TGI (MOLT-4 leukemia): > 10 µM
- TGI (NCI-H226 lung): > 10 µM
- TGI (NCI-H23 lung): > 10 µM
- TGI (NCI-H460 lung): > 10 µM
- TGI (NCI-H522 lung): > 10 µM
- TGI (NCI/ADR-RES ovarian): > 10 µM
- TGI (OVCAR-3 ovarian): > 10 µM
- TGI (OVCAR-4 ovarian): > 10 µM
- TGI (OVCAR-5 ovarian): > 10 µM
- TGI (OVCAR-8 ovarian): > 10 µM
- TGI (PC-3 prostate): > 10 µM
- TGI (RPMI-8226 leukemia): > 10 µM
- TGI (RXF 393 renal): > 10 µM
- TGI (SF-268 CNS): > 10 µM
- TGI (SF-295 CNS): > 10 µM
- TGI (SF-539 CNS): > 10 µM
- TGI (SK-MEL-2 melanoma): > 10 µM
- TGI (SK-MEL-28 melanoma): > 10 µM
- TGI (SK-MEL-5 melanoma): > 10 µM
- TGI (SK-OV-3 ovarian): > 10 µM
- TGI (SN12C renal): > 10 µM
- TGI (SNB-19 CNS): > 10 µM
- TGI (SNB-75 CNS): > 10 µM
- TGI (SR leukemia): > 10 µM
- TGI (SW-620 colon): > 10 µM
- TGI (T-47D breast): > 10 µM
- TGI (TK-10 renal): > 10 µM
- TGI (U251 CNS): > 10 µM
- TGI (UACC-257 melanoma): > 10 µM
- TGI (UACC-62 melanoma): > 10 µM

SMILES: NCCCCCCn1c(-c2ccc(Br)cc2)csc1=Nc1ccccc1
- TGI (786-0 renal): 21.9 µM
- TGI (A498 renal): 33.6 µM
- TGI (A549 NSCLC): 25 µM
- TGI (ACHN renal): 27.7 µM
- TGI (BT-549 breast): 27.4 µM
- TGI (CAKI-1 renal): 28.3 µM
- TGI (CCRF-CEM leukemia): 21.6 µM
- TGI (COLO 205 colon): 3.18 µM
- TGI (DU-145 prostate): 26.3 µM
- TGI (EKVX NSCLC): 26.7 µM
- TGI (HCC-2998 colon): 12.8 µM
- TGI (HCT-116 colon): 15.1 µM
- TGI (HCT-15 colon): 22.1 µM
- TGI (HOP-62 NSCLC): 32.4 µM
- TGI (HOP-92 NSCLC): 32.4 µM
- TGI (HS 578T breast): 35.6 µM
- TGI (HT29 colon): 19.9 µM
- TGI (K-562 leukemia): 4.84 µM
- TGI (KM12 colon): 19.7 µM
- TGI (LOX IMVI melanoma): 13.1 µM
- TGI (M14 melanoma): 3.17 µM
- TGI (MALME-3M melanoma): 25.6 µM
- TGI (MCF7 breast): 17.4 µM
- TGI (MDA-MB-231 breast): 30.3 µM
- TGI (MDA-MB-435): 22.6 µM
- TGI (MDA-N): 19.7 µM
- TGI (MOLT-4 leukemia): 14.8 µM
- TGI (NCI-H226 lung): 39.5 µM
- TGI (NCI-H23 lung): 29.8 µM
- TGI (NCI-H460 lung): 27.1 µM
- TGI (NCI-H522 lung): 24 µM
- TGI (NCI/ADR-RES ovarian): 28.8 µM
- TGI (OVCAR-3 ovarian): 23.7 µM
- TGI (OVCAR-4 ovarian): 25.9 µM
- TGI (OVCAR-5 ovarian): 24.6 µM
- TGI (OVCAR-8 ovarian): 26.2 µM
- TGI (PC-3 prostate): 18.3 µM
- TGI (RPMI-8226 leukemia): 16.2 µM
- TGI (RXF 393 renal): 26.2 µM
- TGI (SF-268 CNS): 31.3 µM
- TGI (SF-295 CNS): 29.5 µM
- TGI (SF-539 CNS): 30.6 µM
- TGI (SK-MEL-2 melanoma): 33.4 µM
- TGI (SK-MEL-28 melanoma): 27.2 µM
- TGI (SK-MEL-5 melanoma): 21.7 µM
- TGI (SK-OV-3 ovarian): 31.1 µM
- TGI (SN12C renal): 26.5 µM
- TGI (SNB-19 CNS): 29 µM
- TGI (SNB-75 CNS): 24.2 µM
- TGI (SR leukemia): 11.3 µM
- TGI (SW-620 colon): 17.6 µM
- TGI (T-47D breast): 18.3 µM
- TGI (TK-10 renal): 26.7 µM
- TGI (U251 CNS): 20.9 µM
- TGI (UACC-257 melanoma): 29.6 µM
- TGI (UACC-62 melanoma): 32.1 µM
- TGI (UO-31 renal): 22.1 µM

SMILES: CCc1c(-c2ccc(OC)cc2)c(=O)oc2cc(O)ccc12
- TGI (786-0 renal): > 100 µM
- TGI (A498 renal): 98.7 µM
- TGI (A549 NSCLC): > 100 µM
- TGI (ACHN renal): > 100 µM
- TGI (BT-549 breast): 75.9 µM
- TGI (CAKI-1 renal): > 100 µM
- TGI (CCRF-CEM leukemia): > 100 µM
- TGI (COLO 205 colon): 97.1 µM
- TGI (DU-145 prostate): > 100 µM
- TGI (EKVX NSCLC): > 100 µM
- TGI (HCC-2998 colon): > 100 µM
- TGI (HCT-116 colon): > 100 µM
- TGI (HCT-15 colon): > 100 µM
- TGI (HL-60(TB) leukemia): 32.6 µM
- TGI (HOP-62 NSCLC): > 100 µM
- TGI (HOP-92 NSCLC): > 100 µM
- TGI (HS 578T breast): > 100 µM
- TGI (HT29 colon): > 100 µM
- TGI (IGROV1 ovarian): > 100 µM
- TGI (K-562 leukemia): > 100 µM
- TGI (KM12 colon): > 100 µM
- TGI (LOX IMVI melanoma): > 100 µM
- TGI (M14 melanoma): 56.8 µM
- TGI (MALME-3M melanoma): 79.5 µM
- TGI (MCF7 breast): > 100 µM
- TGI (MDA-MB-231 breast): > 100 µM
- TGI (MDA-MB-435): > 100 µM
- TGI (MDA-N): > 100 µM
- TGI (MOLT-4 leukemia): 57.9 µM
- TGI (NCI-H226 lung): > 100 µM
- TGI (NCI-H23 lung): > 100 µM
- TGI (NCI-H460 lung): > 100 µM
- TGI (NCI-H522 lung): > 100 µM
- TGI (NCI/ADR-RES ovarian): > 100 µM
- TGI (OVCAR-3 ovarian): 87.5 µM
- TGI (OVCAR-4 ovarian): > 100 µM
- TGI (OVCAR-5 ovarian): > 100 µM
- TGI (OVCAR-8 ovarian): > 100 µM
- TGI (PC-3 prostate): 83.3 µM
- TGI (RPMI-8226 leukemia): 47.6 µM
- TGI (RXF 393 renal): > 100 µM
- TGI (SF-268 CNS): > 100 µM
- TGI (SF-295 CNS): > 100 µM
- TGI (SF-539 CNS): > 100 µM
- TGI (SK-MEL-2 melanoma): > 100 µM
- TGI (SK-MEL-28 melanoma): > 100 µM
- TGI (SK-MEL-5 melanoma): 33.8 µM
- TGI (SN12C renal): > 100 µM
- TGI (SNB-19 CNS): > 100 µM
- TGI (SNB-75 CNS): > 100 µM
- TGI (SR leukemia): 58.4 µM
- TGI (SW-620 colon): > 100 µM
- TGI (T-47D breast): > 100 µM
- TGI (U251 CNS): > 100 µM
- TGI (UACC-257 melanoma): 61.3 µM
- TGI (UACC-62 melanoma): > 100 µM
- TGI (UO-31 renal): 68.4 µM

— PubChem BioAssay (NCI)
